According to US20120022058A1, “4,5-DIHYDRO-1H-PYRAZOLE COMPOUNDS AND THEIR PHARMACEUTICAL USES” (Pfizer Inc., priority 2009, published 2012):

Target: T1, MR (Homo sapiens, UniProt P08235)
T1 construct: expressed in transfected cells; host or cells: Huh7 human liver cells, transient transfection
T1 sequence (P08235 726-964 limits assumed): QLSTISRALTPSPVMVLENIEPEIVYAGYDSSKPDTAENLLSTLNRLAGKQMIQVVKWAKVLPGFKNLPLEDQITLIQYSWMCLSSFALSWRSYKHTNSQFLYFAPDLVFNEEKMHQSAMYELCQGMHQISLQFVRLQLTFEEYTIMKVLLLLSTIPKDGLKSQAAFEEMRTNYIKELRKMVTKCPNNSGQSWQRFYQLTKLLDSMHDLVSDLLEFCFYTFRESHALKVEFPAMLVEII
Assay: Cell-Based Reporter Assay (Gal4 DBD-MR LBD luciferase reporter, antagonist mode);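 note: cells co-transfected with a Gal4 response element luciferase plasmid, compound exposure overnight before lysis and luminescence counting, IC50 reflects reduced aldosterone-stimulated reporter signal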
Conditions: antagonist mode vs aldosterone at EC80; transfected human liver cells (Huh7); luciferase readout; Examples 3, 6, 12 and 13 tested in analogous format with minor variations

Row | IC50 [nM] | Compound
1 | 34.6 | COC(=O)c1ccc(C2=NN(c3ccc(C#N)c(C)c3)C(C3CCCC3)C2)nc1OC (stereo not drawn) [Example 1, Methyl 6-(1-(4-cyano-3-methylphenyl)-5-cyclopentyl-4,5-dihydro-1H-pyrazol-3-yl)-2-methoxynicotinate]
2 | 9.2 | COC(=O)c1ccc(C2=NN(c3ccc(C#N)c(C)c3)[C@@H](C3CCCC3)C2)nc1OC [Example 2]
3 | 9 | COc1cc(N2N=C(c3ccc(C(=O)O)c(OC)n3)CC2C2CCCC2)ccc1C#N (stereo not drawn) [Example 6, 6-[1-(4-cyano-3-methoxy-phenyl)-5-cyclopentyl-4,5-dihydro-1H-pyrazol-3-yl]-2-methoxy-nicotinic acid]
4 | 2000 | COc1cc(C2=NN(c3ccc(C#N)c(Cl)c3)[C@@H](C3CCCC3)C2)ncc1C(=O)O [Example 13, (R)-6-(1-(3-chloro-4-cyanophenyl)-5-cyclopentyl-4,5-dihydro-1H-pyrazol-3-yl)-4-methoxynicotinic acid]
5 | > 2260 | COC(=O)c1ccc(C2=NN(c3ccc(C#N)c(C)n3)[C@@H](C3CCCC3)C2)cc1 [Example 14, (R)-methyl 4-(1-(5-cyano-6-methylpyridin-2-yl)-5-cyclopentyl-4,5-dihydro-1H-pyrazol-3-yl)benzoate]
6 | 13.4 | Cc1nc(N2N=C(c3ccc(C(N)=O)cc3)C[C@@H]2C2CCCC2)ccc1C#N [Example 16, (R)-4-(1-(5-cyano-6-methylpyridin-2-yl)-5-cyclopentyl-4,5-dihydro-1H-pyrazol-3-yl)benzamide]
7 | 8.4 | Cc1nc(N2N=C(c3ccc(S(C)(=O)=O)cc3)C[C@@H]2C2CCCC2)ccc1C#N [Example 17, (R)-6-(5-cyclopentyl-3-(4-(methylsulfonyl)phenyl)-4,5-dihydro-1H-pyrazol-1-yl)-2-methylnicotinonitrile]
8 | 1.9 | Cc1nc(N2N=C(c3ccc4ncn(C)c(=O)c4c3)C[C@@H]2C2CCCC2)ccc1C#N [Example 18, (R)-6-(5-cyclopentyl-3-(3-methyl-4-oxo-3,4-dihydroquinazolin-6-yl)-4,5-dihydro-1H-pyrazol-1-yl)-2-methylnicotinonitrile]
9 | 10.8 | Cc1nc(N2N=C(c3ccc4c(c3)NC(=O)CO4)C[C@@H]2C2CCCC2)ccc1C#N [Example 19, (R)-6-(5-cyclopentyl-3-(3-oxo-3,4-dihydro-2H-benzo[b][1,4]oxazin-6-yl)-4,5-dihydro-1H-pyrazol-1-yl)-2-methylnicotinonitrile]
10 | 19.7 | Cc1nc(N2N=C(c3ccc(S(N)(=O)=O)cc3)C[C@@H]2C2CCCC2)ccc1C#N [Example 20, (R)-4-(1-(5-cyano-6-methylpyridin-2-yl)-5-cyclopentyl-4,5-dihydro-1H-pyrazol-3-yl)benzenesulfonamide]
11 | 105 | Cc1nc(N2N=C(c3cccc(S(C)(=O)=O)c3)C[C@@H]2C2CCCC2)ccc1C#N [Example 21, (R)-6-(5-cyclopentyl-3-(3-(methylsulfonyl)phenyl)-4,5-dihydro-1H-pyrazol-1-yl)-2-methylnicotinonitrile]
12 | 13.5 | CCS(=O)(=O)c1ccc(C2=NN(c3ccc(C#N)c(C)n3)[C@@H](C3CCCC3)C2)cc1 [Example 22, (R)-6-(5-cyclopentyl-3-(4-(ethylsulfonyl)phenyl)-4,5-dihydro-1H-pyrazol-1-yl)-2-methylnicotinonitrile]
13 | 113 | Cc1cc(C2=NN(c3ccc(C#N)c(C)n3)[C@@H](C3CCCC3)C2)ccc1C#N [Example 23, (R)-6-(3-(4-cyano-3-methylphenyl)-5-cyclopentyl-4,5-dihydro-1H-pyrazol-1-yl)-2-methylnicotinonitrile]
14 | 25 | Cc1cc(C2=NN(c3ccc(C#N)c(C)n3)[C@@H](C3CCCC3)C2)ccc1C(N)=O [Example 24, (R)-4-(1-(5-cyano-6-methylpyridin-2-yl)-5-cyclopentyl-4,5-dihydro-1H-pyrazol-3-yl)-2-methylbenzamide]
15 | 48.4 | Cc1nc(N2N=C(c3ccc(NS(C)(=O)=O)cc3)C[C@@H]2C2CCCC2)ccc1C#N [Example 25, (R)—N-(4-(1-(5-cyano-6-methylpyridin-2-yl)-5-cyclopentyl-4,5-dihydro-1H-pyrazol-3-yl)phenyl)methanesulfonamide]
16 | 85.3 | COc1cc(C2=NN(c3ccc(C#N)c(C)n3)[C@@H](C3CCCC3)C2)ccc1C#N [Example 26, (R)-6-(3-(4-cyano-3-methoxyphenyl)-5-cyclopentyl-4,5-dihydro-1H-pyrazol-1-yl)-2-methylnicotinonitrile]
17 | 5.2 | COc1cc(C2=NN(c3ccc(C#N)c(C)n3)[C@@H](C3CCCC3)C2)ccc1C(N)=O [Example 27]
18 | 97.6 | COc1cccc(C2=NN(c3ccc(C#N)c(C)n3)[C@@H](C3CCCC3)C2)n1 [Example 28, (R)-6-(5-cyclopentyl-3-(6-methoxypyridin-2-yl)-4,5-dihydro-1H-pyrazol-1-yl)-2-methylnicotinonitrile]
19 | 30.6 | Cc1nc(N2N=C(c3cccc(C(N)=O)c3)C[C@@H]2C2CCCC2)ccc1C#N [Example 29, (R)-3-(1-(5-cyano-6-methylpyridin-2-yl)-5-cyclopentyl-4,5-dihydro-1H-pyrazol-3-yl)benzamide]
20 | 9.7 | Cc1nc(N2N=C(c3ccc4c(c3)CNC4=O)C[C@@H]2C2CCCC2)ccc1C#N [Example 30, (R)-6-(5-cyclopentyl-3-(1-oxoisoindolin-5-yl)-4,5-dihydro-1H-pyrazol-1-yl)-2-methylnicotinonitrile]
21 | 11.2 | Cc1nc(N2N=C(c3ccc4c(c3)C(=O)NC4)C[C@@H]2C2CCCC2)ccc1C#N [Example 31, (R)-6-(5-cyclopentyl-3-(3-oxoisoindolin-5-yl)-4,5-dihydro-1H-pyrazol-1-yl)-2-methylnicotinonitrile]
22 | 8.9 | COC(=O)c1cc(C2=NN(c3ccc(C#N)c(C)n3)[C@@H](C3CCCC3)C2)ccc1S(C)(=O)=O [Example 35, (R)-methyl 5-(1-(5-cyano-6-methylpyridin-2-yl)-5-cyclopentyl-4,5-dihydro-1H-pyrazol-3-yl)-2-(methylsulfonyl)benzoate]
23 | 225 | COc1ccc(C2=NN(c3ccc(C#N)c(C)n3)[C@@H](C3CCCC3)C2)cc1C(=O)O [Example 36, (R)-5-(1-(5-cyano-6-methylpyridin-2-yl)-5-cyclopentyl-4,5-dihydro-1H-pyrazol-3-yl)-2-methoxybenzoic acid]
24 | 82.2 | COC(=O)c1ccc(C2=NN(c3ccc(C#N)c(C)n3)[C@@H](C3CCCC3)C2)c(OC)c1 [Example 38, (R)-methyl 4-(1-(5-cyano-6-methylpyridin-2-yl)-5-cyclopentyl-4,5-dihydro-1H-pyrazol-3-yl)-3-methoxybenzoate]
25 | 7 | COc1cc(C(=O)O)ccc1C1=NN(c2ccc(C#N)c(C)n2)[C@@H](C2CCCC2)C1 [Example 39, (R)-methyl 4-(1-(5-cyano-6-methylpyridin-2-yl)-5-cyclopentyl-4,5-dihydro-1H-pyrazol-3-yl)-3-methoxybenzoic acid]
26 | 9.1 | CCOc1cc(C2=NN(c3ccc(C#N)c(C)n3)[C@@H](C3CCCC3)C2)ccc1C(=O)O [Example 41, (R)-4-(1-(5-cyano-6-methylpyridin-2-yl)-5-cyclopentyl-4,5-dihydro-1H-pyrazol-3-yl)-2-ethoxybenzoic acid]
27 | 5 | CCOc1cc(C2=NN(c3ccc(C#N)c(C)n3)[C@@H](C3CCCC3)C2)ccc1C(N)=O [Example 42, (R)-4-(1-(5-cyano-6-methylpyridin-2-yl)-5-cyclopentyl-4,5-dihydro-1H-pyrazol-3-yl)-2-ethoxybenzamide]
